Data taken from ChEMBL document CHEMBL5113521, “Discovery of a Novel Oral Proteasome Inhibitor to Block NLRP3 Inflammasome Activation with Anti-inflammation Activity” (J Med Chem, 2022).
The source made the active and inactive calls. The rule behind the calls is not given here.

What was measured:
[1] = biological target: NACHT, LRR and PYD domains-containing protein 3 (Mus musculus) (UniProt Q8R4B8); test: Inhibition of NLRP3 inflammasome activation in LPS/nigericin stimulated mouse BMDM cells assessed as […] in ASC speck formation at 15 to 60 nM preincubated for 1 hr followed by LPS/nigericin stimulation by DAPI staining based immunofluorescence assay; assay type: cell-based; details: dose 15-60 nM
Sequence of NACHT, LRR and PYD domains-containing protein 3 (Mus musculus) (Q8R4B8 whole entry, the tested form may be a part): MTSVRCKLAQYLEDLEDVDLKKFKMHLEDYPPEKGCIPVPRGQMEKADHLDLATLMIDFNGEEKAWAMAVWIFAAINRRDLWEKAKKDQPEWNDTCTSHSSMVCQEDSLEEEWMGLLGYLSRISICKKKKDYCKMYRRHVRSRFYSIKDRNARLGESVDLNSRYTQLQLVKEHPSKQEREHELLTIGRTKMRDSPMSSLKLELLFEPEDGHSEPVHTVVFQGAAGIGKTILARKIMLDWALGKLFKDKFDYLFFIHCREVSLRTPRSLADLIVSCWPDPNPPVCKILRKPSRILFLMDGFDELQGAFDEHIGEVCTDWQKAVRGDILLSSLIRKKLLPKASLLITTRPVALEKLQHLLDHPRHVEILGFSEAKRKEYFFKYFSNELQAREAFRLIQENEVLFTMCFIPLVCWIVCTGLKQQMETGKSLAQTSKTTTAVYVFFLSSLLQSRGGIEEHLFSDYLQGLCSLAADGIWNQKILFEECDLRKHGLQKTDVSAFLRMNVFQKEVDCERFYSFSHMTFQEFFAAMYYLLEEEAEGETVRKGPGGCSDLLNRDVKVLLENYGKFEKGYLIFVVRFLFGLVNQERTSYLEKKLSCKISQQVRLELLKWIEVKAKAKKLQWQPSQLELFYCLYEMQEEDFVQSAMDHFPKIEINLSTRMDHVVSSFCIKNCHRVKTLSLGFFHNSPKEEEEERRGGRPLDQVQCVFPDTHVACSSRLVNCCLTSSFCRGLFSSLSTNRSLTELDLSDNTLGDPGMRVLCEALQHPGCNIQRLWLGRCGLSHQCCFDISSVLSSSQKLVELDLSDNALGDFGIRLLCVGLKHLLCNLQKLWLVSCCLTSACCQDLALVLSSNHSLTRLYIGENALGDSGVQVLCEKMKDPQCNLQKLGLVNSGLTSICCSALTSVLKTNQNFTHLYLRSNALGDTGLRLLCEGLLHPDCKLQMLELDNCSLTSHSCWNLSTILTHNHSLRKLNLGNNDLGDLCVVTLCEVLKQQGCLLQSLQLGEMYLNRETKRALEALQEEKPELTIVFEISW

[2] = MRT (0 to infinity) in Sprague-Dawley rat at 0.5 mg/kg, iv measured upto 24 hrs by liquid chromatography tandem mass spectrometry; assay type: ADME, organism-based; details: in vivo
[3] = biological target: NACHT, LRR and PYD domains-containing protein 3 (Mus musculus) (UniProt Q8R4B8); test: Inhibition of NLRP3 inflammasome activation in LPS-primed mouse J774.A1 cells assessed as inhibition of release of IL-1 beta preincubated for 1 hr followed by nigericin stimulation and measured after 1 hr by ELISA; assay type: cell-based; details: dose 7.5-60 nM, time 2.0 hrs, DDE = dose-dependent effect
[4] = biological target: T1, Apoptosis-associated speck-like protein containing a CARD (Mus musculus) (UniProt Q9EPB4); test: Inhibition of ASC oligomerization in LPS stimulated mouse J774A.1 cells preincubated for 1 hr followed by nigericin stimulation by immunoblot analysis; assay type: cell-based; details: J774.A1, dose 15-60 nM, DDE = dose-dependent effect
T1 sequence (whole entry): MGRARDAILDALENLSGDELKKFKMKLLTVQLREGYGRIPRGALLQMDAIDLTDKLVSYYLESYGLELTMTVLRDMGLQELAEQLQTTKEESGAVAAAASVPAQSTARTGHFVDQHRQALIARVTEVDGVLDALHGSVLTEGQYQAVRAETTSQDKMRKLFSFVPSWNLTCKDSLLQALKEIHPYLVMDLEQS

HEK293 = test: Cytotoxicity against HEK293 cells at less than 20 uM incubated for 24 hrs; assay type: toxicity, cell-based; details: human, hek293, 24 h
Mus musculus [5] = test: Anti-colitis activity against DSS-induced ulcerative colitis C57BL/6J mouse model assessed as suppression of DSS induced weight loss at 0.125 to 0.5 mg/kg, po administered every 72 hrs for 10 days; assay type: functional, organism-based; details: dose 0.125-0.5 mg/kg, time 10.0 day
Mus musculus [6] = test: Protection against DSS-induced acute colitis in C57BL/6 mouse model assessed as improvement in inflammatory cell infiltration at 0.125 to 0.5 mg/kg, po administered for 10 days by Hematoxylin and eosin staining based analysis; assay type: functional, organism-based; details: dose 0.125-0.5 mg/kg, time 10.0 day
Mus musculus [7] = test: Protection against DSS-induced acute colitis in C57BL/6 mouse model assessed as improvement in goblet cell depletion at 0.125 to 0.5 mg/kg, po administered for 10 days by Hematoxylin and eosin staining based analysis; assay type: functional, organism-based; details: dose 0.125-0.5 mg/kg, time 10.0 day
Mus musculus [8] = test: Anti-colitis activity against DSS-induced ulcerative colitis C57BL/6J mouse assessed as reduction in colon length decrease at 0.125 to 0.5 mg/kg, po administered every 72 hrs for 10 days; assay type: functional, organism-based; details: dose 0.125-0.5 mg/kg, time 10.0 day
[9] = Half life in Sprague-Dawley rat at 0.5 mg/kg, iv measured upto 24 hrs by liquid chromatography tandem mass spectrometry; assay type: ADME, organism-based; details: in vivo
[10] = Half life in Sprague-Dawley rat at 1 mg/kg, po measured upto 24 hrs by liquid chromatography tandem mass spectrometry; assay type: ADME, organism-based; details: in vivo
[11] = biological target: NLR family CARD domain-containing protein 4 (Mus musculus) (UniProt Q3UP24); test: Inhibition of NLRC4 inflammasome activation in LPS-primed mouse BMDM cells assessed as reduction in IL-1beta secretion at 7.5 to 60 nM preincubated for 1 hr followed by poly (dA/dT) stimulation by ELISA; assay type: cell-based; details: dose 7.5-60 nM
Sequence of NLR family CARD domain-containing protein 4 (Mus musculus) (Q3UP24 whole entry, the tested form may be a part): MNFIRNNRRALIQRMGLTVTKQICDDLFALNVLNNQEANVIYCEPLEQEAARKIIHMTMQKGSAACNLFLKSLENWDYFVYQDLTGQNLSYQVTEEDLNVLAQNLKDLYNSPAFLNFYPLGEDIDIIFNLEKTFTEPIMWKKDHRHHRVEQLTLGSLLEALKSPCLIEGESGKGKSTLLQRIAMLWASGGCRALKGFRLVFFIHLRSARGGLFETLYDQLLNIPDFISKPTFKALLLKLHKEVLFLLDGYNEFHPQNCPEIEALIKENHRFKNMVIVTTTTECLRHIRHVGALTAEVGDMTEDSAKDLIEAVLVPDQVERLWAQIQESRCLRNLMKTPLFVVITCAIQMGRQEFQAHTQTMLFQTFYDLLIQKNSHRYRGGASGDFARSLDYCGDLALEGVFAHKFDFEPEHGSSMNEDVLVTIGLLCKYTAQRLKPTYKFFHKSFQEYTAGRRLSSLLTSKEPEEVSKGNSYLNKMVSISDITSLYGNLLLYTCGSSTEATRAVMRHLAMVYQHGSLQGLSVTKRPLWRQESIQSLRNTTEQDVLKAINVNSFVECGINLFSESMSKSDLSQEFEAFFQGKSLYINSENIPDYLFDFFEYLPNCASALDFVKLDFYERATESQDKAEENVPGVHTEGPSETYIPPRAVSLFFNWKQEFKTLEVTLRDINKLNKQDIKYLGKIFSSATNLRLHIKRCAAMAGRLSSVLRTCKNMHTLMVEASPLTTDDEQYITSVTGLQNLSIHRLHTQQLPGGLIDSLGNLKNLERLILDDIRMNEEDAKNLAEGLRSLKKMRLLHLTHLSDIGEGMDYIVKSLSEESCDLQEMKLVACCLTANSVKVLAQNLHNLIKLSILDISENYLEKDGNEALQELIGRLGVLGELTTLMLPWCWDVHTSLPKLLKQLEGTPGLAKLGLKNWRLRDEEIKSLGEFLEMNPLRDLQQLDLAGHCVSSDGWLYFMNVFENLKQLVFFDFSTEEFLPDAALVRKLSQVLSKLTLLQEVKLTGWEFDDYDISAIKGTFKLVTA

[12] = biological target: NACHT, LRR and PYD domains-containing protein 3 (Mus musculus) (UniProt Q8R4B8); test: Inhibition of NLRP3 inflammasome activation in LPS-primed mouse J774.A1 cells assessed as inhibition of IL-1 beta release in supernatant preincubated for 1 hr followed by nigericin stimulation measured after 1 hr by Western blot analysis; assay type: cell-based; details: dose 7.5-60 nM, time 2.0 hrs, DDE = dose-dependent effect
[13] = biological target: NACHT, LRR and PYD domains-containing protein 3 (Mus musculus) (UniProt Q8R4B8); test: Inhibition of NLRP3 inflammasome activation in LPS-primed mouse BMDM cells assessed as reduction in IL-1 beta release preincubated for 1 hr followed by nigericin stimulation and measured after 1 hr by ELISA; assay type: cell-based; details: dose 7.5-60 nM, time 2.0 hrs, DDE = dose-dependent effect
Mus musculus [14] = species: Mus musculus; test: Protection against DSS-induced C57BL/6 mouse ulcerative colitis model assessed as reduction in IL-1 beta in colon homogenate by ELISA; assay type: functional, organism-based; details: dose 0.125-0.5 mg/kg, route po, DDE = dose-dependent effect
[15] = biological target: NLR family CARD domain-containing protein 4 (Mus musculus) (UniProt Q3UP24); test: Inhibition of NLRC4 inflammasome activation in LPS-primed mouse BMDM cells assessed as reduction in IL-1beta secretion at 7.5 to 60 nM preincubated for 1 hr followed by FLA-ST Ultrapure stimulation by ELISA; assay type: cell-based; details: dose 7.5-60 nM
[16] = biological target: NACHT, LRR and PYD domains-containing protein 3 (Mus musculus) (UniProt Q8R4B8); test: Inhibition of NLRP3 inflammasome activation in LPS-primed mouse J774.A1 cells assessed as inhibition of caspase-1 p20 subunit release in supernatant preincubated for 1 hr followed by nigericin stimulation measured after 1 hr by Western blot analysis; assay type: cell-based; details: dose 7.5-60 nM, time 2.0 hrs, DDE = dose-dependent effect
J774.A1 [17] = test: Inhibition of NF-kappaB in LPS treated mouse J774.A1 cells assessed as reduction in p65 level at 60 nM incubated for 1 hr followed by LPS stimulation measured after 5 hrs by Western blot analysis; assay type: cell-based; details: time 6.0 hrs
[18] = biological target: T2, Interferon-inducible protein AIM2 (Mus musculus) (UniProt Q91VJ1); test: Inhibition of AIM2 inflammasome activation in LPS-primed mouse BMDM cells assessed as reduction in IL-1beta secretion at 7.5 to 60 nM preincubated for 1 hr followed by poly (dA/dT) stimulation by ELISA; assay type: cell-based; details: dose 7.5-60 nM
T2 sequence (whole entry): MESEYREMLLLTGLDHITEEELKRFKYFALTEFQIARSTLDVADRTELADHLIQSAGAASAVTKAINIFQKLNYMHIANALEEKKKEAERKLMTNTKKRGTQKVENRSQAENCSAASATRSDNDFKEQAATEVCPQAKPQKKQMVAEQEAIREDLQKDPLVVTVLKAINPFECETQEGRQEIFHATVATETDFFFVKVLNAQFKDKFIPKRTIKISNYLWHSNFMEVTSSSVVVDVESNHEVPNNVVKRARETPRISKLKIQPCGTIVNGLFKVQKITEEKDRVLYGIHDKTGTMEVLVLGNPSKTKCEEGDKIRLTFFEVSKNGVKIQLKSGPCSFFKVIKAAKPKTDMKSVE

[19] = Cmax in Sprague-Dawley rat at 1 mg/kg, po measured upto 24 hrs by liquid chromatography tandem mass spectrometry; assay type: ADME, organism-based; set-up: dose 1 mg/kg, time < 24 hrs, route po; details: in vivo
[20] = Clearance in Sprague-Dawley rat at 0.5 mg/kg, iv measured upto 24 hrs by liquid chromatography tandem mass spectrometry; assay type: ADME, organism-based; details: in vivo
[21] = biological target: NACHT, LRR and PYD domains-containing protein 3 (Mus musculus) (UniProt Q8R4B8); test: Inhibition of NLRP3 inflammasome activation in LPS-stimulated mouse J774.A1 cells assessed as increase in polyubiquitinated NLRP3 preincubated for 1 hr followed by nigericin stimulation measured after 1 hr by immunoblot analysis; assay type: cell-based; details: dose 7.5-60 nM, time 2.0 hrs, DDE = dose-dependent effect
[22] = Tmax in Sprague-Dawley rat at 0.5 mg/kg, iv measured upto 24 hrs by liquid chromatography tandem mass spectrometry; assay type: ADME, organism-based; details: in vivo
J774.A1 [23] = test: Inhibition of NF-kappaB in LPS treated mouse J774.A1 cells assessed as reduction in NLRP3 level at 60 nM incubated for 1 hr followed by LPS stimulation measured after 5 hrs by Western blot analysis; assay type: cell-based; details: time 6.0 hrs

- inhibition [1]: Active
- MRT inf [2]: 6.14 h
- inhibition [3]: Dde
- inhibition [4]: Dde
- t1/2 [9]: 4.73 h
- t1/2 [10]: 8.36 h
- inhibition [11]: Active
- inhibition [12]: Dde
- inhibition [13]: Dde
- inhibition [15]: Active
- inhibition [16]: Dde
- inhibition [18]: Active
- Cmax [19]: 208 ng/mL
- clearance [20]: 18.8 mL/min/kg
- Activity [21]: Dde
- Tmax [22]: 4.8 min
Compound: CC(C)C[C@H](NC(=O)[C@H](Cc1ccccc1)NC(=O)c1c(F)cccc1F)B(O)O
- Activity (HEK293): Non-Toxic
- Activity (Mus musculus [5]): Active
- Activity (Mus musculus [6]): Active
- Activity (Mus musculus [7]): Active
- Activity (Mus musculus [8]): Active
- Activity (Mus musculus [14]): Dde
- inhibition (J774.A1 [17]): Active
- inhibition (J774.A1 [23]): Active
